Experimental data from patent US20040033963A1, “Urea composition” (priority 2002, published 2004).

experiment: Antioxidant screening: prevention or retardation of air oxidation of anthralin, hydroquinone or banana peel; conditions: screening methods: air oxidation of anthralin
Protocol: The antioxidant property of some hydroxyacids, polyhydroxy acids and lactones are determined as follows. Oxidation by definition is removal of electrons or addition of oxygen. An antioxidant can be defined as a substance capable of preventing or inhibiting oxidation, or capable of disposing, scavenging, or suppressing formation or actions of peroxide, superoxide or free radicals. We have developed three simple assays to determine if a substance is an antioxidant or not. The antioxidant property is determined by using one of the following screening methods: prevention or retardation of air oxidation of (a) anthralin, (b) hydroquinone, or (c) banana peel. A freshly prepared anthralin solution or cream is bright yellow, and an air oxidized one is brownish or black. A hydroquinone solution or cream is colorless or white color, and an air-oxidized one is brownish or black. A freshly peeled banana peel is light yellow in color, and an oxidized one ranges in color from tan, dark tan, brown to brownish black.
Known antioxidants such as vitamin C and N-acetylcysteine may be used as the positive control in these screening methods.

Row | SMILES | antioxidant property
1 | O=C(O)C(O)C(=O)O [tartronic acid] | antioxidants
2 | O=C(O)CC(C(=O)O)C(O)C(=O)O (stereo not shown) [isocitric acid] | antioxidants
3 | O=C1O[C@H](CO)[C@@H](O)[C@H](O)[C@H]1O [gluconolactone] | antioxidants
4 | O=C(O)[C@@H](O)[C@H]1OC(=O)[C@H](O)[C@H]1O [glucarolactone] | antioxidants
5 | O=C(O)CC(O)C(=O)O (stereo not shown) [malic acid] | antioxidants
6 | O=C1O[C@@H]([C@H](O)CO)[C@H](O)[C@H]1O [galactonolactone] | antioxidants
7 | O=C1O[C@@H]([C@H](O)[C@H](O)CO)[C@@H](O)C1O (stereo partly shown) [glucoheptonolactone] | antioxidants
8 | O=C(O)[C@H](O)[C@@H](O)[C@H](O)[C@H](O)CO [gluconic acid] | antioxidants
9 | O=C1O[C@H](CO)[C@@H](O)[C@H]1O [ribonolactone] | antioxidants
10 | O=C1O[C@H]([C@@H](O)CO)C(O)=C1O [ascorbic acid] | antioxidants
11 | O=C[C@H](O)[C@H]1OC(=O)[C@@H](O)[C@H]1O [glucuronolactone] | antioxidants
12 | O=C(O)CC(O)(CC(=O)O)C(=O)O [citric acid] | antioxidants
13 | O=C1O[C@H]([C@H](O)CO)C(O)=C1O [isoascorbic acid] | antioxidants
